Source: patent US11760754B2, “Heterocyclic mitochondrial activity inhibitors and uses thereof” (UNIVERSITÉ DE MONTRÉAL, priority 2017, dated 2023)
pEC50: −log10 of the molar value.

What was measured:
MLL-AF9 cells = experiment: MLL-AF9 leukemia cell growth inhibition, dose-response viability assay (CellTiterGlo); assay type: cell-based, murine; conditions: Mus musculus, MLL-AF9, 120 h, read-out: MLL-AF9 EC50
Outline: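 Murine MLL-AF9 leukemia cells (female, MSCV MLL-AF9 IRES Puro transduced) were treated with serial compound dilutions from 10 μM to 0.5 nM in duplicates or quadruplicates. Viability read by CellTiterGlo dose-response.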

OCI-AML3 cells = experiment: OCI-AML3 cell growth inhibition, dose-response viability assay (CellTiterGlo); assay type: cell-based; conditions: Homo sapiens, OCI-AML-3, 144 h, read-out: AML-3 EC50
Outline: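 OCI-AML3 cells seeded, then exposed to compound in serial dilutions from 10 μM to 0.5 nM, in duplicate or quadruplicate. Viability read by CellTiter-Glo.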

Structure (SMILES) | pEC50 (MLL-AF9 cells) | pEC50 (OCI-AML3 cells)
O=C(CCCn1ccnn1)c1ccc(OCc2coc(/C=C/c3ccc(Br)cc3F)n2)cc1 [Compound 20, (E)-1-(4-((2-(4-bromo-2-fluorostyryl)oxazol-4-yl)methoxy)phenyl)-4-(1H-1,2,3-triazol-1-yl)butan-1-one] | 6.30 to 7.00 | 6.00 to 6.30
CCN(CC)C(=O)OCCCCc1ccc(OCc2coc(/C=C/c3ccc(C(F)(F)F)cc3)n2)cc1 [Compound 34, (E)-4-(4-((2-(4-(trifluoromethyl)styryl)oxazol-4-yl)methoxy)phenyl)butyl diethylcarbamate] | 5.00 to 6.00 | 5.00 to 6.00
O=C(NC1CCCC1)OCCc1cn(CCCCc2ccc(OCc3coc(/C=C/c4ccc(C(F)(F)F)cc4F)n3)cc2)nn1 [Compound 97, (E)-2-(1-(4-(4-((2-(2-fluoro-4-(trifluoromethyl)styryl)oxazol-4-yl)methoxy)phenyl)butyl)-1H-1,2,3-triazol-4-yl)ethyl cyclopentylcarbamate] | 6.30 to 7.00 | 6.30 to 7.00
Fc1cc(C(F)(F)F)ccc1/C=C/c1nc(COc2ccc(CCCCn3cncn3)cc2)co1 [Compound 88] | 6.00 to 6.30 | 5.00 to 6.00
Fc1cc(C(F)(F)F)ccc1/C=C/c1nc(COc2ccc(CCCCn3ccnn3)nc2)co1 [Compound 133, (E)-4-(((6-(4-(1H-1,2,3-triazol-1-yl)butyl)pyridin-3-yl)oxy)methyl)-2-(2-fluoro-4-(trifluoromethyl)styryl)oxazole] | 7.00 to 7.30 | 6.30 to 7.00
CC(C)NC(=O)OCCc1cn(CCCCc2ccc(OCc3coc(/C=C/c4ccc(C(F)(F)F)cc4F)n3)cc2)nn1 [Compound 98, (E)-2-(1-(4-(4-((2-(2-fluoro-4-(trifluoromethyl)styryl)oxazol-4-yl)methoxy)phenyl)butyl)-1H-1,2,3-triazol-4-yl)ethyl isopropylcarbamate] | 7.00 to 7.30 | 6.30 to 7.00
[N-]=[N+]=Nc1ccc(/C=C/c2nc(COc3ccc(CCCCn4ccnn4)cc3)co2)c(F)c1 [Compound 67, (E)-4-((4-(4-(1H-1,2,3-triazol-1-yl)butyl)phenoxy)methyl)-2-(4-azido-2-fluorostyryl)oxazole] | 6.30 to 7.00 | 6.30 to 7.00
O=C(Nc1ccc(CCCCn2ccnn2)cc1)c1coc(/C=C/c2ccc(C(F)(F)F)cc2)n1 [Compound 30, (E)-N-(4-(4-(1H-1,2,3-triazol-1-yl)butyl)phenyl)-2-(4-(trifluoromethyl)styryl)oxazole-4-carboxamide] | 6.30 to 7.00 | 6.00 to 6.30
Fc1cc(C(F)(F)F)ccc1/C=C/c1nc(COc2ccc(CCCCn3cnnn3)cc2)co1 [Compound 90, (E)-4-((4-(4-(1H-tetrazol-1-yl)butyl)phenoxy)methyl)-2-(2-fluoro-4-(trifluoromethyl)styryl) oxazole] | 6.30 to 7.00 | 5.00 to 6.00
C#CCNC(=O)CCCCc1cn(CCCCc2ccc(OCc3coc(/C=C/c4ccc(C(F)(F)F)cc4)n3)cc2)nn1 [Compound 12, (E)-N-(prop-2-yn-1-yl)-5-(1-(4-(4-((2-(4-(trifluoromethyl)styryl)oxazol-4-yl)methoxy)phenyl)butyl)-1H-1,2,3-triazol-4-yl)pentanamide] | 6.30 to 7.00 | 6.00 to 6.30
C/C(=C\c1nc(COc2ccc(CCCCn3ccnn3)cc2)co1)c1ccc(C(F)(F)F)cc1 [Compound 74, (E)-4-((4-(4-(1H-1,2,3-triazol-1-yl)butyl)phenoxy)methyl)-2-(2-(4-(trifluoromethyl)phenyl)prop-1-en-1-yl)oxazole] | 6.30 to 7.00 | 5.00 to 6.00
CN(C)C(=O)OCCCCc1ccc(OCc2coc(/C=C/c3ccc(C(F)(F)F)cc3)n2)cc1 [Compound 36, (E)-4-(4-((2-(4-(trifluoromethyl)styryl)oxazol-4-yl)methoxy)phenyl)butyl dimethylcarbamate] | 5.00 to 6.00 | 5.00 to 6.00
Brc1ccc(/C=C/c2nc(COc3ccc(CCCCn4ccnn4)cc3)co2)cc1 [Compound 33, (E)-4-((4-(4-(1H-1,2,3-triazol-1-yl)butyl)phenoxy)methyl)-2-(4-bromostyryl)oxazole] | 6.30 to 7.00 | 6.30 to 7.00
Fc1cc(C(F)(F)F)ccc1/C=C/c1nc(COc2ccc(CCCCc3cccnn3)cc2)co1 [Compound 138, (E)-2-(2-fluoro-4-(trifluoromethyl)styryl)-4-((4-(4-(pyridazin-3-yl)butyl)phenoxy)methyl)oxazole] | 7.00 to 7.30 | > 7.30

More lines, now with the values ahead:

pEC50 (MLL-AF9 cells) | pEC50 (OCI-AML3 cells) | Structure (SMILES)
6.00 to 6.30 | 5.00 to 6.00 | O=[N+]([O-])c1ccc(/C=C/c2nc(COc3ccc(C(O)CCCn4ccnn4)cc3)co2)c(F)c1 (stereo not shown) [Compound 25, (E)-1-(4-((2-(2-fluoro-4-nitrostyryl)oxazol-4-yl)methoxy)phenyl)-4-(1H-1,2,3-triazol-1-yl)butan-1-ol]
6.30 to 7.00 | 6.00 to 6.30 | O=S(=O)(NCCc1nccn1CCCCc1ccc(OCc2coc(/C=C/c3ccc(C(F)(F)F)cc3)n2)cc1)C(F)(F)F [Compound 55, (E)-1,1,1-trifluoro-N-(2-(1-(4-(4-((2-(4-(trifluoromethyl)styryl)oxazol-4-yl)methoxy)phenyl)butyl)-1H-imidazol-2-yl)ethyl)methanesulfonamide]
5.00 to 6.00 | 5.00 to 6.00 | CCOC(=O)c1cn(CCCCc2ccc(OCc3coc(/C=C/c4ccc(C(F)(F)F)cc4)n3)cc2)nn1 [Compound 114, ethyl (E)-1-(4-(4-((2-(4-(trifluoromethyl)styryl)oxazol-4-yl)methoxy)phenyl)butyl)-1H-1,2,3-triazole-4-carboxylate]
6.00 to 6.30 | 5.00 to 6.00 | CN(C)c1cccc2c(S(=O)(=O)NCCc3cn(CCCCc4ccc(OCc5coc(/C=C/c6ccc(C(F)(F)F)cc6)n5)cc4)nn3)cccc12 [Compound 31, (E)-5-(dimethylamino)-N-(2-(1-(4-(4-((2-(4-(trifluoromethyl)styryl)oxazol-4-yl)methoxy)phenyl)butyl)-1H-1,2,3-triazol-4-yl)ethyl)naphthalene-1-sulfonamide]
5.00 to 6.00 | 5.00 to 6.00 | O=[N+]([O-])c1cccc(/C=C/c2nc(COc3ccc(CCCCn4ccnn4)cc3)co2)c1 [Compound 43, (E)-4-((4-(4-(1H-1,2,3-triazol-1-yl)butyl)phenoxy)methyl)-2-(3-nitrostyryl)oxazole]
5.00 to 6.00 | < 5.00 | Fc1cc(C(F)(F)F)ccc1/C=C/c1nc(COc2ccc(CCCCc3ccccn3)cc2)co1 [Compound 140, (E)-2-(2-fluoro-4-(trifluoromethyl)styryl)-4-((4-(4-(pyridin-2-yl)butyl)phenoxy)methyl)oxazole]
7.00 to 7.30 | 6.30 to 7.00 | OC(CCCn1ccnn1)c1ccc(OCc2coc(/C=C/c3ccc(C(F)(F)F)cc3)n2)cc1 (stereo not shown) [Compound 17, (E)-4-(1H-1,2,3-triazol-1-yl)-1-(4-((2-(4-(trifluoromethyl)styryl)oxazol-4-yl)methoxy)phenyl)butan-1-ol]
5.00 to 6.00 | 5.00 to 6.00 | FC(F)(F)c1ccc(/C=C/c2cccc(COc3ccc(CCCCn4ccnn4)cc3)c2)cc1 [Compound 56, (E)-1-(4-(4-((3-(4-(trifluoromethyl)styryl)benzyl)oxy)phenyl)butyl)-1H-1,2,3-triazole]
5.00 to 6.00 | 6.00 to 6.30 | NC(=O)c1ccc(/C=C/c2nc(COc3ccc(CCCCn4ccnn4)cc3)co2)cc1 [Compound 63, (E)-4-(2-(4-((4-(4-(1H-1,2,3-triazol-1-yl)butyl)phenoxy)methyl)oxazol-2-yl)vinyl)benzamide]
